According to ChEMBL document CHEMBL4431326, “Tumor Targeting with Novel 6-Substituted Pyrrolo [2,3-d] Pyrimidine Antifolates with Heteroatom Bridge Substitutions via Cellular Uptake by Folate Receptor α and the Proton-Coupled Folate Transporter and Inhibition of de Novo Purine Nucleotide Biosynthesis” (J Med Chem, 2016):
Active and inactive are the calls of the source. The calls are words filed in the database; no cut-off is given here.

How the values were obtained:
[1] = biological target: T1, Proton-coupled folate transporter (Homo sapiens) (UniProt Q96NT5); test: Inhibition of [3H]MTX uptake at human PCFT expressed in Chinese hamster R2/PCFT4 cells at 1 uM and pH 5.5 measured after 5 mins; format: cell-based
T1 sequence (whole entry): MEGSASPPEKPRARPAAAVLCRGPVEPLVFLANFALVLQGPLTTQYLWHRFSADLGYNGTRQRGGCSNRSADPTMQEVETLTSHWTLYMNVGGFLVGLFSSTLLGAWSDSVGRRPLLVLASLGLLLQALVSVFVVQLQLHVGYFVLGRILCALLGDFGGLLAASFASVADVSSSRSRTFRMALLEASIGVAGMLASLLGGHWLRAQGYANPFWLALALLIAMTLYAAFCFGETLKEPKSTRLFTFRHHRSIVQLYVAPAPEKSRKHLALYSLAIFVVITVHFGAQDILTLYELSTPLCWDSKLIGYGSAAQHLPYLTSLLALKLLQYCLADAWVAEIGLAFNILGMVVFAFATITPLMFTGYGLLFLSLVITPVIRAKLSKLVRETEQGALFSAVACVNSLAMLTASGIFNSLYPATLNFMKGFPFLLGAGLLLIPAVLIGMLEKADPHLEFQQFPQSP

KB [2] = test: Antiproliferative activity against human KB cells expressing human RFC/FR-alpha/PCFT assessed as reduction in cell viability measured after 96 hrs by Cell-Titer Blue fluorescence analysis; format: functional, cell-based
[3] = Cytotoxicity in PCFT-null Chinese hamster R2 cells assessed as reduction in cell viability measured after 96 hrs by Cell-Titer Blue fluorescence analysis; format: cell-based; details: Cricetulus griseus, R2, 96 h
[4] = biological target: T1, Proton-coupled folate transporter (Homo sapiens); test: Inhibition of [3H]MTX uptake at human PCFT expressed in Chinese hamster R2/PCFT4 cells at 10 uM and pH 6.8 measured after 5 mins; format: cell-based
[5] = biological target: Bifunctional purine biosynthesis protein ATIC (Homo sapiens) (UniProt P31939); test: Inhibition of AICARFTase in human KB cells expressing RFC/FR-alpha/PCFT assessed as cell growth inhibition measured after 96 hrs in presence of 320 uM AICA by Cell-Titer Blue fluorescence analysis; format: cell-based
[6] = biological target: T2, GAR transformylase/AICAR transformylase (Homo sapiens) (UniProt P31939+P22102); test: Inhibition of GARFTase/AICARFTase in human KB cells expressing RFC/FR-alpha/PCFT assessed as cell growth inhibition measured after 96 hrs in presence of 10 uM thymidine by Cell-Titer Blue fluorescence analysis; format: cell-based
[7] = biological target: T2, GAR transformylase/AICAR transformylase (Homo sapiens); test: Inhibition of GARFTase/AICARFTase in human KB cells expressing RFC/FR-alpha/PCFT assessed as cell growth inhibition measured after 96 hrs in presence of 60 uM adenosine by Cell-Titer Blue fluorescence analysis; format: cell-based
[8] = biological target: Folate receptor alpha (Homo sapiens) (UniProt P15328); test: Displacement of [3H]folic acid from human FR-alpha receptor expressed in Chinese hamster RT16 cells measured after 15 mins relative to folic acid; format: cell-based; set-up: concentration or dose not given beside the values
[9] = biological target: T3, Proton-coupled folate transporter (Homo sapiens, UniProt Q96NT5); test: Inhibition of [3H]MTX uptake at human PCFT expressed in Chinese hamster R2/PCFT4 cells at pH 5.5 measured after 5 mins by Dixon plot analysis; format: cell-based
T3 sequence (Q96NT5 whole entry): T1 sequence (whole entry)

[10] = biological target: T1, Proton-coupled folate transporter (Homo sapiens); test: Inhibition of [3H]MTX uptake at human PCFT expressed in Chinese hamster R2/PCFT4 cells at 10 uM and pH 5.5 measured after 5 mins; format: cell-based
[11] = biological target: T4, Trifunctional purine biosynthetic protein adenosine-3 (Homo sapiens, UniProt P22102); test: Inhibition of GARFTase in human KB cells expressing RFC/FR-alpha/PCFT assessed as decrease in incorporation of [14C(U)]-glycine into [14C]formyl GAR incubated for 1 hr followed by addition of [14C(U)]-glycine measured after 16 hrs in presence of azaserine; format: cell-based
T4 sequence (P22102 whole entry): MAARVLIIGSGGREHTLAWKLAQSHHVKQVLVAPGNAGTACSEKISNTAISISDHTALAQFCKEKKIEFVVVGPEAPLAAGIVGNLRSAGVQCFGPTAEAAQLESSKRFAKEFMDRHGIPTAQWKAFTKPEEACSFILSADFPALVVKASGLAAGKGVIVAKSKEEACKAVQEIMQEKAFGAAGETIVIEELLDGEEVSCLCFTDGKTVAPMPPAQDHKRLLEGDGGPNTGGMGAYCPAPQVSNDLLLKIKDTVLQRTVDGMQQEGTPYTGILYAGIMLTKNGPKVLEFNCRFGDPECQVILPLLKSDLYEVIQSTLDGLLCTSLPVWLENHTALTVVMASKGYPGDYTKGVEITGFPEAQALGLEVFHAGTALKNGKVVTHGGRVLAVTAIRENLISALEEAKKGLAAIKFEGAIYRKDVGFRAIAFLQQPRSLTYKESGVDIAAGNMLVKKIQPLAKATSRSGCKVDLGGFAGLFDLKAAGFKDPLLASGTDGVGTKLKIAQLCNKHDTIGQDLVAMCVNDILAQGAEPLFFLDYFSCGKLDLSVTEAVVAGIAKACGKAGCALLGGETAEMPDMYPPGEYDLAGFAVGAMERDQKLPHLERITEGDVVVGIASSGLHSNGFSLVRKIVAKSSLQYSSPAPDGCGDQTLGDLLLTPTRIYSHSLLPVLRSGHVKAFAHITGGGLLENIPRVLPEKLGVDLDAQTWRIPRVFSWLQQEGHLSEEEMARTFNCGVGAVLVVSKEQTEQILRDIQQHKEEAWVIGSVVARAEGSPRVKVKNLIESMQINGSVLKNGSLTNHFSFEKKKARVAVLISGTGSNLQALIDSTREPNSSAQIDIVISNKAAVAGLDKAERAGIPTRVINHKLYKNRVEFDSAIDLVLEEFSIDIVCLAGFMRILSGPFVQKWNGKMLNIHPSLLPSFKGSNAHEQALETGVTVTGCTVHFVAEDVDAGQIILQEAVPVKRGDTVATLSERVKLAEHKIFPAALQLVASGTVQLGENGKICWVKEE

[12] = Cytotoxicity in RFC-null Chinese hamster R2 cells assessed as reduction in cell viability measured after 96 hrs by Cell-Titer Blue fluorescence analysis; format: cell-based; details: Cricetulus griseus, R2, 96 h
[13] = biological target: T4, Trifunctional purine biosynthetic protein adenosine-3; test: Inhibition of recombinant N-terminal 6His-tagged human GARFTase assessed as formation of 5,8-dideazafolate from 10-formyl-5,8-dideazafolic acid measured at every 15 seconds over 20 min by spectrophotometric analysis
KB [14] = test: Antiproliferative activity against human KB cells expressing human RFC/FR-alpha/PCFT assessed as reduction in cell viability measured after 96 hrs in presence of folic acid by Cell-Titer Blue fluorescence analysis; format: functional, cell-based
[15] = biological target: Folate receptor beta (Homo sapiens) (UniProt P14207); test: Displacement of [3H]folic acid from human FR-beta receptor expressed in Chinese hamster D4 cells measured after 15 mins relative to folic acid; format: cell-based
Sequence of Folate receptor beta (Homo sapiens) (P14207 17-230 limits assumed): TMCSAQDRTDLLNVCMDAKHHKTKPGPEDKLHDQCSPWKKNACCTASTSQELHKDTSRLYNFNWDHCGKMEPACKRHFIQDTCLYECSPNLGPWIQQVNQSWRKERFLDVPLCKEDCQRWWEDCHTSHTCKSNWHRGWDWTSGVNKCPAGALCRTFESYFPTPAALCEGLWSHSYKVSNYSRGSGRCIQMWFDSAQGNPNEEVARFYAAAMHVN

T2 sequence (P31939 whole entry, looked up, one chain of several): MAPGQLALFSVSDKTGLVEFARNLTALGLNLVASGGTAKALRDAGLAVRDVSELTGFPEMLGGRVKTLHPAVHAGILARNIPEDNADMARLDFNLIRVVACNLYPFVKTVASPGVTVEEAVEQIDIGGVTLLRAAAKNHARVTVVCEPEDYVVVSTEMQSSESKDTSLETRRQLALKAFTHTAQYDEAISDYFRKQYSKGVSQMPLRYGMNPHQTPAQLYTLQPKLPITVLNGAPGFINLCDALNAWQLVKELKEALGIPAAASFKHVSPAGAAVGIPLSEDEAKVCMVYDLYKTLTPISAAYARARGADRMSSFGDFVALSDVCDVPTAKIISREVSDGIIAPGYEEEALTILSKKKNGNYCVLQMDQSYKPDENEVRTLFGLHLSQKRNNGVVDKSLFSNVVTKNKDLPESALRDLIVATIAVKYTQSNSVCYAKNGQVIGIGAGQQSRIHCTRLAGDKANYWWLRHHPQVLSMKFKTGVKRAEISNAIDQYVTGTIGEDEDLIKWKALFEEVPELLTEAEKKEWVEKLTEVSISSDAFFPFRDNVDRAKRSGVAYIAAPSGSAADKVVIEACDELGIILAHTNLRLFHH
Sequence of Bifunctional purine biosynthesis protein ATIC (Homo sapiens) (P31939 whole entry, looked up): as the sequence (P31939 whole entry, looked up, one chain of several) above
Sequence of Folate receptor alpha (Homo sapiens) (P15328 25-234 limits assumed): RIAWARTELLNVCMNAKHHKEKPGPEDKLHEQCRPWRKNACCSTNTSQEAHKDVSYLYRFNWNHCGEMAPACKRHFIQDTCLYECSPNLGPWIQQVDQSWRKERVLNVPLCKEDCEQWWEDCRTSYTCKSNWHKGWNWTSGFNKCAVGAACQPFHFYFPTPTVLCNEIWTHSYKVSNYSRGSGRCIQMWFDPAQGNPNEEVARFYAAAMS

inhibition [1] | IC50 (KB [2]) | inhibition [4] | inhibition [5] | inhibition [6] | inhibition [7] | inhibition [8] | Ki [9] | inhibition [10] | IC50 [11] | Ki [13] | IC50 (KB [14]) | inhibition [15] | SMILES | IC50 [3] | IC50 [12]
30 to 60% | 0.56 nM | 40 to 60% | Active | Active | inactive | < 15% | 800 nM | 80 to 90% | 4.95 nM | 122 nM | 924 nM | – | Nc1nc2[nH]c(CCN(C(=O)C(F)(F)F)c3ccc(C(=O)N[C@@H](CCC(=O)O)C(=O)O)cc3)cc2c(=O)[nH]1 | > 1000 nM | > 1000 nM
30 to 60% | 1.66 nM | Active | Active | Active | inactive | 60 to 110% | 1480 nM | 80 to 90% | 5.25 nM | 201 nM | > 1000 nM | 60 to 110% | Nc1nc2[nH]c(CCSc3ccc(C(=O)N[C@@H](CCC(=O)O)C(=O)O)cc3)cc2c(=O)[nH]1 | > 1000 nM | > 1000 nM
30 to 60% | 0.34 nM | 40 to 60% | Active | Active | inactive | 60 to 110% | 640 nM | 80 to 90% | 6.62 nM | 61 nM | 704 nM | 60 to 110% | Nc1nc2[nH]c(CCOc3ccc(C(=O)N[C@@H](CCC(=O)O)C(=O)O)cc3)cc2c(=O)[nH]1 | > 1000 nM | 940 nM
